Results published in PubChem BioAssay (NCI).
“And” between values parts separate entries of the source, which are not always exact repeats. Identical values can stand only once.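 Compound exposure: 48 hours, 5 concentrations, 96-well plates. GI50 marks 50% less growth. TGI is the concentration that stops growth completely.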

Key:
Assay in all cases: inhibition of tumour cell growth, NCI panel, 48 h
[1] = system: MALME-3M melanoma
[2] = system: UACC-62 melanoma
[3] = system: HT29 colon
[4] = system: NCI-H23 lung
[5] = system: LOX IMVI melanoma
[6] = system: HL-60(TB) leukemia
[7] = system: HOP-92 NSCLC
[8] = system: SR leukemia
[9] = system: OVCAR-5 ovarian
[10] = system: RPMI-8226 leukemia

| Structure (SMILES) | GI50 [1] | TGI [1] | GI50 [2] | TGI [2] | GI50 [3] | TGI [3] | GI50 [4] | TGI [4] | GI50 [5] | TGI [5] | GI50 [6] | TGI [6] | GI50 [7] | TGI [7] | GI50 [8] [µM] | TGI [8] | GI50 [9] [µM] | TGI [9] | GI50 [10] | TGI [10] |
| --- | --- | --- | --- | --- | --- | --- | --- | --- | --- | --- | --- | --- | --- | --- | --- | --- | --- | --- | --- | --- |
| NCCSC(C[N+](=O)[O-])c1ccccc1Cl (configuration not stated) | 16.3 µM | 36.7 µM | 13.2 µM | 26.3 µM | 3.15 µM | 10.9 µM | 3.37 µM | 12 µM | 1.69 µM | 3.56 µM | 3.38 µM | > 23.3 µM | 12.5 µM | 47.2 µM | 3.05 | > 100 µM | 4.66 | 10.4 µM | 0.727 µM | 5.3 µM |
| COc1cc(NC(=O)c2cc(O)c(C/C=C(\C)CCC=C(C)C)c(O)c2)cc2c1O[C@]1(C)CC[C@@H](O)C(C)(C)[C@H]1C2 | 1.62 µM | 5.39 µM | 1.42 µM | 3.37 µM | 1.62 µM | 5.79 µM | 2.38 µM | 12.8 µM | 1.35 µM | 2.89 µM | 0.549 µM | 4.88 µM | 0.627 µM | 3.89 µM | 0.418 | 4.34 µM | 4.09 | 19.2 µM | 0.262 µM | 1.32 µM |
| O=C(Cn1c2ccccc2c2ccncc21)N/N=C\c1ccc2ccccc2c1 | 11.4 µM | 45.6 µM | 18 µM | 42.9 µM | 21.7 µM | 50.3 µM | 17.6 µM | 52.6 µM | 28.6 µM | > 100 µM | 29 µM | > 100 µM | 12.4 µM | 36.7 µM | 6.39 | > 100 µM | 36.5 | > 100 µM | 7.88 µM | > 100 µM |
| CN(C)N=Nc1nn(C(=O)Nc2ccc(Cc3ccccc3)cc2)c2ccccc12 | 6.6 µM | > 100 µM | 0.0385 µM | 1.65 µM | 3.34 µM | > 100 µM | 7.58 µM | > 100 µM | 0.0625 µM | > 73.3 µM | 25.2 µM | > 100 µM | 6.47 µM | > 100 µM | > 100 | > 100 µM | > 21.6 | > 100 µM | 5.06 µM | > 100 µM |
| Nc1nc(Cl)nc2c1ncn2[C@@H]1O[C@H](COS(N)(=O)=O)[C@@H](O)[C@H]1O | 0.0188 µM and 0.0209 µM | 0.0403 µM and 0.0456 µM | 0.019 µM and 0.0217 µM | 0.044 µM and 0.0561 µM | 0.0254 µM and 0.03 µM | 0.0678 µM and 0.0949 µM | 0.021 µM and 0.0288 µM | 0.0538 µM and 0.0982 µM | 0.0181 µM and 0.0231 µM | 0.0356 µM and 0.0552 µM | – | 0.0224 µM | 0.0159 µM and 0.0206 µM | 0.0454 µM and 0.056 µM | 0.00307 | 0.0487 µM and 0.0418 µM | 0.00425 | 0.0401 µM and 0.0385 µM | 0.0251 µM and 0.0255 µM | 0.0975 µM and 0.072 µM |
| COc1cc2c3cc1Oc1c(OC)c(OC)cc4c1C(Cc1ccc(cc1)Oc1cc(ccc1O)CC3N(C)CC2)N(C)CC4 (configuration not stated) | – | 27 µM and 26 µM | – | 28.5 µM and 21.7 µM | – | 20.9 µM and 14.1 µM | – | 48.1 µM and 26.3 µM | 6.39 µM and 2.56 µM | 19.1 µM | 5.61 µM and 1.88 µM | 30.5 µM and 7.29 µM | – | 38.7 µM and 41.3 µM | – | 8.98 µM and 7.5 µM | – | 67.4 µM and 29.6 µM | – | 32.1 µM |
| O=c1[nH]nc(-c2ccccc2)c2c(-c3ccccc3)onc12 | 0.751 µM | > 90 µM | 0.43 µM | > 100 µM | 0.391 µM | > 100 µM | 4.83 µM | > 100 µM | 0.877 µM | > 100 µM | 0.291 µM | – | 0.933 µM | > 58.3 µM | 0.288 | – | > 62.8 | > 100 µM | 0.474 µM | > 55.4 µM |
| COc1cc(-c2oc3c(OC)c(O)cc(O)c3c(=O)c2OC)ccc1O | – | 97.5 µM | – | 24.6 µM | – | > 100 µM | – | > 100 µM | – | > 55.8 µM | – | > 33.3 µM | – | 15.5 µM | – | > 26.7 µM | – | 78.7 µM | – | 46.3 µM |
| Cc1cccc(N=C2NC(=O)C(CC(=O)Nc3ccccc3Cl)S2)c1 (configuration not stated) | – | > 100 µM | – | > 100 µM | – | > 100 µM | – | > 100 µM | – | > 100 µM | – | > 100 µM | – | > 100 µM | – | > 100 µM | – | > 100 µM | – | > 100 µM |
| O=c1[nH]cnc2c1ncn2CCCCO | – | > 100 µM | – | > 100 µM | – | > 100 µM | – | > 100 µM | – | > 100 µM | – | > 100 µM | – | > 100 µM | – | > 100 µM | – | > 100 µM | – | > 100 µM |
| CCCCCCCCCCCCCCCCCc1nnc(N)o1 | – | > 100 µM | – | > 100 µM | – | > 100 µM | – | > 100 µM | – | > 100 µM | – | > 100 µM | – | > 100 µM | – | > 100 µM | – | > 100 µM | – | > 100 µM |
| O=c1cc(-c2ccc(O)cc2)oc2cc(O)cc(O)c12 | – | 88.3 µM | – | > 100 µM | – | – | – | 46.6 µM | – | 86.6 µM | – | > 100 µM | – | 56.6 µM | – | > 100 µM | – | 68 µM | – | > 100 µM |
| O=C1COCCN1c1ccc(NCc2cn(C(=O)c3ccc(Cl)cc3)c3ccccc23)cc1 | 7.96 µM | 24.9 µM | 0.396 µM | 3.37 µM | 3.79 µM | > 100 µM | 3.79 µM | 52.1 µM | 5.53 µM | 19.8 µM | 4.97 µM | 20.9 µM | 1.66 µM | 15 µM | 3.08 | > 100 µM | 0.187 | 0.622 µM | 2.13 µM | 15.8 µM |
| Cc1cc(Cl)ccc1Nc1nc(C(F)(F)F)ccc1C(=O)Nc1cccc(C(F)(F)F)c1 | 1.97 µM | 9.17 µM | 4 µM | 14.4 µM | 3.07 µM | 10.8 µM | 2.85 µM | 11.1 µM | 2.79 µM | 8.55 µM | 2.06 µM | 4.67 µM | 2.21 µM | 8.16 µM | 2.56 | 8.28 µM | 4.75 | 19.3 µM | 2.73 µM | 12 µM |
| O=C1C=C(OCCCl)C(=O)c2c(O)ccc(O)c21 | 0.215 µM | 0.34 µM and 0.911 µM | 0.386 µM | 0.519 µM and 1.61 µM | 1.12 µM | 1.03 µM and 2.89 µM | 1.5 µM | 0.503 µM and 3.22 µM | 0.465 µM | 0.392 µM and 1.83 µM | 0.23 µM | 2.58 µM and 1.17 µM | 3.43 µM | 3.8 µM and 8 µM | – | 3.22 µM | 2.01 | 2.98 µM and 3.56 µM | 1.38 µM | 6.78 µM and 4.08 µM |
